In US6046231A, “Use of 4'-bromoflavone in a cancer chemopreventative composition and method” (The Board of Trustees of the University of Illinois, priority 1999, dated 2000):
“Also recorded” adds a separate entry of the source. Where two headings read alike, the source gives them in different places.

Assays:
cytochrome P-4501A1 = conditions: cited from earlier work
glutathione (GSH) level = test: Glutathione (GSH) level in rat tissues after dietary administration; format: in vivo, Sprague Dawley rat
Method: (§1) Analysis of Quinone Reductase Activity and Glutathione Level in Rat Tissues. Spraque Dawley rats (n=10) at 43 days of age were placed on an appropriate experimental diet (5000, 2500, 1250, 625, and 312.5 mg/kg diet of 4'-BF) for three weeks. After three weeks, animals were sacrificed by carbon dioxide (CO2) asphyxiation. The livers, mammary glands, colons, stomachs, and lungs were collected, rinsed with saline, and frozen in liquid nitrogen and stored at -80° C. until enzyme activities were determined. Individual tissues (except mammary glands) were homogenized in 0.25 M sucrose and centrifuged at 15,000×g for 30 min at 4° C. The supernatant fluids were collected, 20% volume of 0.1 M CaCl2 in 0.25 M sucrose were added. After incubation at 0° C. for 30 min and further centrifuging at 15,000×g for 30 min at 4° C., a clear cytosolic fraction was used for enzyme assay. Mammary glands of each animal were pooled, homogenized in 1 ml ice-cold 0.1 M phosphate buffer pH 6.5 and centrifuged (15,000×g, 30 min at 4° C.), a clear supernatant suitable for enzyme assay resulted. Dicumarol-sensitive QR activity was measured in duplicate in 50 μl of suitable dilution of the tissue supernatant as described for the cellular system. GSH levels were assayed in duplicate using 96-well plates. […] The plates were shaken for 5-10 min and the extent of 2-nitro-5-thiobenzoic acid formation was monitored at 405 nm. A GSH standard curve was used to calculate the GSH content. GSH levels were expressed as nmol/mg protein.
(§2) Induction of Quinone Reductase Activity and Glutathione Level in Rat Tissues. Based on the results in cell cultures, 4'-BF was further evaluated for its inducing potency in rat liver, mammary gland, colon, stomach, and lung. […] The concentration of 4'-BF for maximum induction of GSH was about 1250 to about 2500 mg/kg diet, but varied for different organ sites.

cytochrome P4501A1 = test: Effect on DMBA-induced cytochrome P4501A1 activity in rat tissues; format: in vivo, Sprague Dawley rat
Method: At 43 days of age, Sprague Dawley rats were placed on various experimental diets (Table 1) for 1 week prior to administration of a single (i.g.) dose of DMBA (15 mg). Animals then were weighed and sacrificed by CO2 asphyxiation. Tissues (livers and mammary glands) were collected, rinsed with saline, frozen in liquid nitrogen, and stored at -80° C. until analysis. Individual tissues were homogenized in 0.05 M Tris-HCl buffer (pH 7.5) containing 0.25 M sucrose. Cytosolic and microsomal fractions were obtained through differential centrifugation. Dicumarol-sensitive QR activity was measured as described above using 50 μl of suitably diluted cytosol supernatants (in duplicate). Cytochrome P4501A1-mediated EROD activities were determined as described previously in R. Poul et al. Anal. Biochem., 107, pp. 265-275 (1980) and S. Sharma et al., Cancer Res., 54, pp. 5848-5844 (1994), with slight modifications using suitably diluted microsomal protein. Enzyme activities were expressed as nmol/mg protein/min. Protein content was determined using Bradford reagent with BSA as standard, and data were presented as mean ±SE and analyzed using Student's t test (n=5).

[1] = system: DMBA-induced mammary tumors; test: Inhibition of DMBA-induced mammary carcinogenesis in rats; format: in vivo, female Sprague Dawley rat; conditions: for tumor multiplicity (FIG. 9): control 2.63; for mammary tumor multiplicity: control 2.75; for mammary tumor incidence: control 88.9%; for tumor incidence (FIG. 9): control 89.5
Method: Inhibition of DMBA-induced Mammary Carcinogensis in Rats. On the basis of a 3-week feeding study, maximum tolerated doses were evaluated, and suitable doses were selected for the study of inhibition of DMBA-induced mammary carcinogenesis in rats. Virgin, female Sprague Dawley rats were obtained from Harlan/Sprague-Dawley at 35 days of age. All animals were placed on a diet of Teklad 4% Rat/Mouse chow at this time. After a quarantine period of 1 week, at 42 days of age, the animals were randomized by weight into six groups and placed on the appropriate experimental diet containing 2000 and 4000 mg 4'-bromoflavone/kg diet. At 50 days of age, the animals received a single i.g. dose of 15 mg of DMBA in sesame oil (or vehicle only) following an overnight fast. The rats were maintained on the 4'-bromoflavone diet for one additional week, and then returned to the basal diet without test agent at 57 days of age. During the experiment, all animals were weighed weekly. Palpation for mammary tumors began 3 weeks after the animals received the DMBA, and continued until termination of the study (120 days post DMBA). The date of appearance and location of all tumors was recorded. Animals were observed twice daily to assess their general health. Moribund animals were sacrificed by CO2 asphyxiation. Moribund animals or animals found dead were necropsied immediately. At the termination of the experiment, all mammary tumors were excised and weighed, and mean tumor weight was established. Tumors for Group 2-5 were frozen. The abdominal/inguinal glands of Group 8 were disected free of lymph nodes; one side was frozen, the other side was fixed. Incidence was evaluated with Fisher's exact test and the Logrank test was used for tumor incidence rate. Tumor multiplicity was calculated using Armitage's test for trends in proportions. Latency and tumor weight were evaluated by an unpaired t-test. Survival was analyzed with log-rank analysis.
Inhibition of DMBA-induced Mammary Tumor Carcinogenesis in Rat. Maximum dose tolerance (MDT) studies (data not included) were performed prior to conducting the chemopreventative studies of 4'-BF in animals. Briefly, a test agent was examined in a three-week study to determine the maximum dose that can be administered without causing suppression of body weight gain or inducing other gross manifestations of toxicity and to determine the effective dose in term of induction of phase II detoxifying enzymes. According to the MDT study, two doses of 4'-BF (2000 and 4000 mg/kg diet) were used for the chemopreventative studies.

quinone reductase (QR) = test: QR activity in rat tissues after dietary administration; format: in vivo, Sprague Dawley rat
Method: as §1, §2

[2] = liver, mammary gland, colon, stomach, lung, short-term dietary, P<0.0001

O=c1cc(-c2ccc(Br)cc2)oc2ccccc12 [4'-Bromoflavone]
levels of cytochrome P-4501A1 (cytochrome P-4501A1): significantly increase | levels of cytochrome P-4501A1 (cytochrome P-4501A1; listed as 4'-bromoflavone): phase I induction | GSH level increase, colon (glutathione (GSH) level; colon, dietary): 1.40-1.72 fold | glutathione levels in rat tissues (glutathione (GSH) level; [2]): significantly increased | GSH level increase, liver (glutathione (GSH) level; liver, dietary): 1.62-1.83 fold | GSH level increase, lung (glutathione (GSH) level; lung, dietary): 1.09-1.42 fold | GSH level increase, mammary gland (glutathione (GSH) level; mammary gland, dietary): 1.01-1.28 fold | GSH level increase, stomach (glutathione (GSH) level; stomach, dietary): 1.16-1.17 fold | cytochrome P4501A1 activity vs control (basal diet) (cytochrome P4501A1; liver and mammary gland, each treatment regimen): significantly induced | DMBA-induced cytochrome P4501A1 activity (cytochrome P4501A1; liver or mammary gland, in addition to DMBA): did not significantly alter | tumor multiplicity (FIG. 9) ([1]; 2000 mg/kg diet): 0.65 tumors/rat | mammary tumor multiplicity ([1]; 2000 mg/kg diet): 0.20 | mammary tumor incidence ([1]; 2000 mg/kg diet): 25% | tumor incidence (FIG. 9) ([1]; 2000 mg/kg diet): 30% | tumor multiplicity (FIG. 9) ([1]; 4000 mg/kg diet): 0.20 tumors/rat | mammary tumor multiplicity ([1]; 4000 mg/kg diet): 0.15 | mammary tumor incidence ([1]; 4000 mg/kg diet): 15% | tumor incidence (FIG. 9) ([1]; 4000 mg/kg diet): 20% | tumor latency ([1]; 2000 or 4000 mg/kg diet, listed as 4'-BF): enhanced greatly; also recorded: greatly increased the tumor latency (P<0.001); also recorded: significantly increased (P<0.01) | incidence and multiplicity of mammary tumors ([1]; DMBA-induced): significantly inhibited | QR activity induction, colon (quinone reductase (QR); colon, 312.5-5000 mg/kg diet, 3 weeks): 2.09-4.81 fold | QR activity in rat tissues (quinone reductase (QR); [2]): significantly increased | QR activity induction, liver (quinone reductase (QR); liver, 312.5-5000 mg/kg diet, 3 weeks): 2.22-7.60 fold | QR activity induction, lung (quinone reductase (QR); lung, 312.5-5000 mg/kg diet, 3 weeks): 2.18-5.25 fold | QR activity induction, mammary gland (quinone reductase (QR); mammary gland, 312.5-5000 mg/kg diet, 3 weeks): 1.59-5.52 fold | QR activity induction, stomach (quinone reductase (QR); stomach, 312.5-5000 mg/kg diet, 3 weeks): 1.97-3.42 fold
